# Reference: patent publication US20220402882A1, “HERBICIDAL COMPOUNDS” (SYNGENTA CROP PROTECTION AG, priority 2019, published 2022)
# How the values were obtained:
# Type in all cases: in vivo
# Conditions in all cases: evaluated after 13 days
# [1] = test system: Abutilon theophrasti (ABUTH); assay: Pre-emergence glasshouse herbicide test
# Protocol: (§1) Seeds of a variety of test species are sown in standard soil in pots (Lolium perenne (LOLPE), Amaranthus retoflexus (AMARE), Abutilon theophrasti (ABUTH), Setaria faberi (SETFA), Echinochloa crus-galli (ECHCG), Ipomoea hederacea (IPOHE)). After cultivation for one day (pre-emergence) or after 8 days cultivation (post-emergence) under controlled conditions in a glasshouse (at 24/16° C., day/night; 14 hours light; 65% humidity), the plants are sprayed with an aqueous spray solution derived from the formulation of the technical active ingredient in acetone/water (50:50) solution containing 0.5% Tween™ 20 (polyoxyethelyene sorbitan monolaurate, CAS RN 9005-64-5). Compounds are applied at 125 g/h unless otherwise indicated. The test plants are then grown in a glasshouse under controlled conditions in a glasshouse (at 24/16° C., day/night; 14 hours light; 65% humidity) and watered twice daily. After 13 days for pre- and post-emergence, the test is evaluated for the percentage damage caused to the plant. The biological activities are shown in the following table on a five-point scale (5=80-100%; 4=60-79%; 3=40-59%; 2=20-39%; 1=0-19%).
# [2] = test system: Amaranthus retoflexus (AMARE); assay: Pre-emergence glasshouse herbicide test
# Protocol: as §1
# [3] = test system: Echinochloa crus-galli (ECHCG); assay: Pre-emergence glasshouse herbicide test
# Protocol: as §1
# [4] = test system: Ipomoea hederacea (IPOHE); assay: Pre-emergence glasshouse herbicide test
# Protocol: as §1
# Setaria faberi (SETFA) [5] = assay: Pre-emergence glasshouse herbicide test
# Protocol: as §1
# [6] = test system: Abutilon theophrasti (ABUTH); assay: Post-emergence glasshouse herbicide test
# Protocol: as §1
# [7] = test system: Amaranthus retoflexus (AMARE); assay: Post-emergence glasshouse herbicide test
# Protocol: as §1
# [8] = test system: Echinochloa crus-galli (ECHCG); assay: Post-emergence glasshouse herbicide test
# Protocol: as §1
# [9] = test system: Ipomoea hederacea (IPOHE); assay: Post-emergence glasshouse herbicide test
# Protocol: as §1
# Setaria faberi (SETFA) [10] = assay: Post-emergence glasshouse herbicide test
# Protocol: as §1
SMILES,"percentage damage caused to the plant, ABUTH ([1]; 125 g/h)","percentage damage caused to the plant, AMARE ([2]; 125 g/h)","percentage damage caused to the plant, ECHCG ([3]; 125 g/h)","percentage damage caused to the plant, IPOHE ([4]; 125 g/h)","percentage damage caused to the plant, SETFA (Setaria faberi (SETFA) [5]; 125 g/h)","percentage damage caused to the plant, ABUTH ([6]; 125 g/h)","percentage damage caused to the plant, AMARE ([7]; 125 g/h)","percentage damage caused to the plant, ECHCG ([8]; 125 g/h)","percentage damage caused to the plant, IPOHE ([9]; 125 g/h)","percentage damage caused to the plant, SETFA (Setaria faberi (SETFA) [10]; 125 g/h)","percentage damage caused to the plant, ABUTH ([1]; *Applied at 250 g/ha)","percentage damage caused to the plant, AMARE ([2]; *Applied at 250 g/ha)","percentage damage caused to the plant, ECHCG ([3]; *Applied at 250 g/ha)","percentage damage caused to the plant, IPOHE ([4]; *Applied at 250 g/ha)","percentage damage caused to the plant, SETFA (Setaria faberi (SETFA) [5]; *Applied at 250 g/ha)","percentage damage caused to the plant, ABUTH ([6]; *Applied at 250 g/ha)","percentage damage caused to the plant, AMARE ([7]; *Applied at 250 g/ha)","percentage damage caused to the plant, ECHCG ([8]; *Applied at 250 g/ha)","percentage damage caused to the plant, IPOHE ([9]; *Applied at 250 g/ha)","percentage damage caused to the plant, SETFA (Setaria faberi (SETFA) [10]; *Applied at 250 g/ha)"
CCS(=O)(=O)c1cc(C(=O)Nc2nnnn2C)ccc1OC(F)F [Compound 1.025],5 (5=80-100%),5 (5=80-100%),5 (5=80-100%),4 (4=60-79%),5 (5=80-100%),5 (5=80-100%),5 (5=80-100%),5 (5=80-100%),5 (5=80-100%),5 (5=80-100%),,,,,,,,,,
CCCS(=O)(=O)c1c(OC(F)F)ccc(C(=O)Nc2nnnn2CC)c1Cl [Compound 1.051],5 (5=80-100%),5 (5=80-100%),5 (5=80-100%),4 (4=60-79%),5 (5=80-100%),5 (5=80-100%),5 (5=80-100%),5 (5=80-100%),4 (4=60-79%),5 (5=80-100%),,,,,,,,,,
"CSc1c(OC(F)(F)F)ccc(C(=O)Nc2nnnn2C)c1Cl [Compound 1.005, 2-chloro-3-methylsulfanyl-N-(1-methyltetrazol-5-yl)-4-(trifluoromethoxy)benzamide]",,,,,,,,,,,2 (2=20-39%),4 (4=60-79%),1 (1=0-19%),1 (1=0-19%),1 (1=0-19%),5 (5=80-100%),5 (5=80-100%),5 (5=80-100%),5 (5=80-100%),5 (5=80-100%)
CCS(=O)(=O)c1c(OCC(F)(F)F)ccc(C(=O)Nc2nnnn2C)c1C [Compound 1.040],5 (5=80-100%),5 (5=80-100%),5 (5=80-100%),5 (5=80-100%),5 (5=80-100%),5 (5=80-100%),5 (5=80-100%),5 (5=80-100%),5 (5=80-100%),5 (5=80-100%),,,,,,,,,,
CCS(=O)(=O)c1cc(C(=O)Nc2nnc(C)o2)ccc1OC(F)(F)F [Compound 2.009],5 (5=80-100%),5 (5=80-100%),5 (5=80-100%),2 (2=20-39%),5 (5=80-100%),4 (4=60-79%),5 (5=80-100%),5 (5=80-100%),4 (4=60-79%),5 (5=80-100%),,,,,,,,,,
CCSc1c(OC(F)F)ccc(C(=O)Nc2nnnn2C)c1C [Compound 1.028],5 (5=80-100%),5 (5=80-100%),5 (5=80-100%),3 (3=40-59%),5 (5=80-100%),5 (5=80-100%),5 (5=80-100%),5 (5=80-100%),5 (5=80-100%),5 (5=80-100%),,,,,,,,,,
Cn1nnnc1NC(=O)c1ccc(OCC(F)F)c([S+](C)[O-])c1Cl (centres unmarked) [Compound 1.034],3 (3=40-59%),4 (4=60-79%),4 (4=60-79%),2 (2=20-39%),4 (4=60-79%),4 (4=60-79%),4 (4=60-79%),5 (5=80-100%),3 (3=40-59%),4 (4=60-79%),,,,,,,,,,
CSc1c(OC(F)(F)F)ccc(C(=O)Nc2nnc(C)o2)c1Cl [Compound 2.006],,,,,,,,,,,2 (2=20-39%),5 (5=80-100%),1 (1=0-19%),1 (1=0-19%),1 (1=0-19%),5 (5=80-100%),5 (5=80-100%),5 (5=80-100%),5 (5=80-100%),5 (5=80-100%)
CCS(=O)(=O)c1c(OC(F)F)ccc(C(=O)Nc2nnc(C)o2)c1C [Compound 2.014],5 (5=80-100%),5 (5=80-100%),5 (5=80-100%),5 (5=80-100%),5 (5=80-100%),5 (5=80-100%),5 (5=80-100%),5 (5=80-100%),4 (4=60-79%),5 (5=80-100%),,,,,,,,,,
CC[S+]([O-])c1c(OCC(F)(F)F)ccc(C(=O)Nc2nnnn2C)c1C (centres unmarked) [Compound 1.039],5 (5=80-100%),5 (5=80-100%),4 (4=60-79%),4 (4=60-79%),4 (4=60-79%),5 (5=80-100%),5 (5=80-100%),5 (5=80-100%),4 (4=60-79%),5 (5=80-100%),,,,,,,,,,
CCn1nnnc1NC(=O)c1ccc(OC(F)F)c(S(=O)(=O)CC)c1C [Compound 1.048],5 (5=80-100%),5 (5=80-100%),5 (5=80-100%),5 (5=80-100%),5 (5=80-100%),5 (5=80-100%),5 (5=80-100%),5 (5=80-100%),5 (5=80-100%),5 (5=80-100%),,,,,,,,,,
CCn1nnnc1NC(=O)c1ccc(OC(F)F)c(S(=O)(=O)CC(C)C)c1Cl [Compound 1.053],5 (5=80-100%),5 (5=80-100%),5 (5=80-100%),4 (4=60-79%),5 (5=80-100%),5 (5=80-100%),5 (5=80-100%),5 (5=80-100%),5 (5=80-100%),5 (5=80-100%),,,,,,,,,,
CCS(=O)(=O)c1c(OC(F)F)ccc(C(=O)Nc2nnnn2C)c1C [Compound 1.031],5 (5=80-100%),5 (5=80-100%),5 (5=80-100%),5 (5=80-100%),5 (5=80-100%),5 (5=80-100%),5 (5=80-100%),5 (5=80-100%),5 (5=80-100%),5 (5=80-100%),,,,,,,,,,
CCn1nnnc1NC(=O)c1ccc(OC(F)(F)F)c(S(=O)(=O)CC)c1Cl [Compound 1.047],5 (5=80-100%),5 (5=80-100%),5 (5=80-100%),5 (5=80-100%),5 (5=80-100%),5 (5=80-100%),5 (5=80-100%),5 (5=80-100%),5 (5=80-100%),5 (5=80-100%),,,,,,,,,,
